Source: patent US20220064238A1, “Methods And Compositions For Modifying Transcription Factor Activity by Targeting The Human Mediator Complex Using Cell Penetrating Memetic Peptides And Methods of Treating Cancer Using The Same” (The Regents of the University of Colorado, a body corporate, priority 2020, published 2022)
Bridge positions count the residues as written; N and C are the ends. Square brackets hold non-standard residues; d marks the D form. Peptide text beside a SMILES is read from it. R8 = C=CCCCCCC[C@@](C)(N)C(=O)O; S5 = C=CCCC[C@](C)(N)C(=O)O

Columns and labels:
[1] = test system: cells; details: prior analysis; cited from earlier work
[2] = test system: pol II occupancy at the p21 locus; assay: ChIP of RNA polymerase II occupancy at CDKN1A (p21); format: cell-based; details: 3 h post-Nutlin, Ser5-phosphorylated pol II ChIP
From the text: FIGS. 13A-B. Summary of ChIP experiments, showing that RNA polymerase II occupancy at the p53 target gene CDKN1A (p21) is reduced in cells treated with the bivalent peptide (peptide). A) Time course following Nutlin induction, to determine ideal time point to probe pol II occupancy at the p21 locus. […] However, pol II occupancy is reduced in cells treated with the bivalent peptide. […] Pol II phosphorylated at serine-5 of its C-terminal domain was used for ChIP analysis, because this is a proxy for initiating pol II at gene promoters (start sites). Data represent biological triplicates. Similar results were observed genome-wide, using ChIP-seq, although the timing of induction across p53 target genes will vary (data not shown).

[3] = test system: p53 target genes in HCT116 cells; assay: RNA-Seq / GSEA in HCT116 cells, p53 pathway genes; format: cell-based, human
Experimental: To circumvent this issue, we used a well-tested electroporation protocol to enhance cell uptake of the bivalent peptide (see Methods). HCT116 cells were evaluated either in the presence of bivalent peptide or vehicle (water), with or without Nutlin-3a (FIG. 3A, B). Nutlin-3a is a small molecule that activates and stabilizes p53 by inhibiting MDM2, a repressor of p53. […] After 3 h Nutlin-3a treatment (or DMSO control, ±bivalent peptide), nuclear RNA was isolated and biological replicate RNA-Seq libraries were prepared (FIG. 9A; Table 1).
A confounding issue with these experiments was that cellular uptake of the bivalent peptide could not be accurately measured and could potentially vary from experiment-to-experiment. To assess this possibility more thoroughly, we completed an additional round of RNA-Seq experiments in control vs. Nutlin-treated HCT116 cells (FIG. 9B; Table 1). These additional experiments (RNA-Seq experiment 2) were completed with a slightly modified protocol that included treatment in serum-free media as an effort to enhance peptide uptake. Importantly, the data from RNA-Seq experiment 2 (biological triplicate; FIG. 10) were consistent with the first series of biological replicates (RNA-Seq experiment 1; FIG. 3C-E) and in each case, repression of p53-dependent transcription by the bivalent peptide tracked with Nutlin induction levels (FIG. 9CE). Nutlin-induced activation of p53 target genes was inhibited in the presence of the bivalent peptide, providing further evidence that the bivalent peptide blocks p53 response in cells. However, the scope and magnitude of the effect was reduced in this second, independent set of RNA-Seq experiments (e.g. compare FIG. 3C, D & FIG. 10C, D). This broadly consistent but variable magnitude effect can also be seen from RNA-Seq reads at specific p53 target genes (RNA-Seq experiment 1, FIG. 4A, B; RNA-Seq experiment 2, FIG. 4C, D). The overall p53 response to Nutlin-3a was reduced in RNA Seq experiment 2 (GSEA p53 pathway NES=2.76 in RNA-Seq experiment 1 vs. NES=1.59 in RNASeq experiment 2), which therefore reduced the transcriptional impact of the bivalent peptide. However, we cannot rule out variable cellular uptake of the bivalent peptide as a contributing factor.
Electroporation of bivalent peptide into HCT116 cells (RNA-Seq experiment 1): Two 6-well plates (HCT116 cells) were grown to about 80% confluency. Cells were then trypsinized, washed with PBS, and resuspended in 150 μL Neon Buffer R. The cells were then split into two groups: No peptide and 10 μM peptide. The cells were then drawn into a 10 μL Neon pipet tip, electroporated and ejected into 2 mL of McCoy's 5A media without antibiotic. For each experiment, two cell electroporation aliquots were added to media containing either 0.1% DMSO (control) or 10 μM Nutlin-3a (in DMSO, to a final concentration of 0.1%). For wells containing cells electroporated with peptide, an additional 200 nM peptide was added to the well to allow for peptide uptake during the experiment. The 6-well plate was then placed back at 37° C. for 3 hours. After 3 hours, cells were scraped from the plates, transferred to a 15 mL conical vial, pelleted at 1,000×g, and washed in 10 mL phosphate buffered saline (PBS) solution. To isolate the nuclei, cells were resuspended in 10 mL lysis buffer (10 mM Tris-HCl, pH 7.4, 2 mM MgCl2, 3 mM CaCl2), 0.5% NP-40, 10% glycerol) and thoroughly mixed. The nuclei were spun down at 1,000×g for 10 minutes, the lysis buffer was removed, and 1 mL of TRIzol was added. The nuclear RNA was isolated as described in the TRIzol instructions, except an additional phenol/chloroform extraction and chloroform-only extraction were performed to reduce contaminants. RNA was precipitated and washed twice with 75% ethanol to further remove contaminants. The RNA was then converted to cDNA using the High Capacity cDNA kit from Thermo Fisher Scientific. […]

[4] = test system: basal transcription; assay: In vitro transcription on naked DNA templates, basal (no activator); format: biochemical, human; details: no GAL4-p53, naked DNA templates
From the text: To screen peptides for the ability to selectively block p53-dependent transcription, we required an assay that enabled p53-dependent activation but that could also support basal (i.e. activator-independent) transcription. The present inventors had previously established an in vitro transcription assay (using highly purified human factors (FIG. 1A). A key feature of this assay was that both activated and basal transcription could be reconstituted on naked DNA templates (i.e. DNA templates not assembled into chromatin). To adapt this assay for purposes of measuring basal vs. p53-activated transcription, we generated templates with Gal4 DNA binding sites upstream of the adenovirus major late promoter sequence (FIG. 5A, B). Upon titration of a Gal4 DNA Binding Domain (DBD)-p53 Activation Domain (AD; residues 1-70) fusion protein into this system, we observed pol II-dependent transcription that was dependent on p53AD and Mediator (FIG. 5C). Reactions containing Gal4-p53AD generally produced about two- to four-fold more transcripts compared to reactions with no activator (FIG. 5C). Because experiments without Gal4-p53AD produced a low level of “basal” transcription that could be quantitated, this system allowed assessment of both p53-activated and basal transcription. […]

[5] = target: human Mediator complex (human)

GST-VP16AD (residues 411-490), sequence (P08515 1-218, tags or fused parts left off): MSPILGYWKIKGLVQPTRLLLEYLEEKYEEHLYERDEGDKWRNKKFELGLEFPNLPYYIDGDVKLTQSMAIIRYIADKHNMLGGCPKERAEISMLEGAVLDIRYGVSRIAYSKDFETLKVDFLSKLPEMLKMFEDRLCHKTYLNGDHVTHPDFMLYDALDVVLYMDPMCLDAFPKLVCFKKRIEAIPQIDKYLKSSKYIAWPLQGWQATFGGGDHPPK

Molecule: CC(=O)N[C@@H](CCCNC(=N)N)C(=O)N[C@@H](CO)C(=O)N[C@@H](CCC(N)=O)C(=O)N[C@@H](CCC(=O)O)C(=O)N[C@@H](CCCNC(=N)N)C(=O)N[C@@H](Cc1ccccc1)C(=O)N[C@]1(C)CCCCCCC=CCCC[C@@](C)(C(=O)N[C@@H](CCCNC(=N)N)C(=O)N[C@@H](CCCNC(=N)N)C(N)=O)NC(=O)[C@H](CC(C)C)NC(=O)[C@H](CCCNC(=N)N)NC(=O)[C@H](CCCCN)NC(=O)[C@H](Cc2c[nH]c3ccccc23)NC(=O)[C@H](CC(C)C)NC(=O)[C@H](CC(=O)O)NC1=O [BP1.4] (Ac-RSQERF[R8]DLWKRL[S5]RR-NH2; staple 7-14; C-terminus assumed)
- cellular uptake [1]: not effectively taken up by cells

Molecule: COc1ccc(C2=N[C@@H](c3ccc(Cl)cc3)[C@@H](c3ccc(Cl)cc3)N2C(=O)N2CCNC(=O)C2)c(OC(C)C)c1 [Nutlin-3a, reference compound]
- pol II occupancy at the p21 locus [2]: strongly induced pol II at the p21 locus
- expression of p53 target genes ([3]; Nutlin-3a 10 μM, 3 h, HCT116): induced expression of p53 target genes
- GSEA p53 pathway NES, Nutlin response without peptide ([3]; RNA-Seq experiment 1): 2.76
- GSEA p53 pathway NES, Nutlin response without peptide ([3]; RNA-Seq experiment 2): 1.59

Molecule: BP1.5: N-acetylated hydrocarbon-stapled penta-arg p53AD1 mimic, SEQ ID NO. 5 RRETFZDRWKRLXRN
- effect on basal transcription, initial screen ([4]; 5 μM peptide): did not affect basal transcription
- effect on basal transcription, follow-up experiments [4]: negatively affected basal transcription to some degree

Molecule: GST-VP16AD (residues 411-490) (from UniProt P08515 1-218; P06492 411-490)
- fold change of Mediator-bound VP16 with bivalent peptide vs. without [5]: 1.67 fold
